Experimental data taken from patent publication US20150218213A1, “INHIBITORS OF ALPHA6 INTEGRIN/E-CADHERIN COMPLEX” (Università degli Studi di Torino, priority 2012, published 2015).

Experiments:
[1] = test system: U293 cells stably overexpressing E-cadherin, α6 integrin or both; assay: Cell proliferation assay (crystal violet); type: cell-based, human; details: 100 μM peptide, complete (10% FCS) medium; FIG. 12
Description: U293 cells stably overexpressing E-cadherin, α6 integrin or both were grown in complete (10% FCS) culture medium in the presence of either the control or […] (SEQ ID NO: 14) peptide. At 24 hour time points, cells were fixed and stained with crystal violet; their numbers were estimated by spectrophotometric evaluation. Results are shown as mean±standard deviation for each experimental point in 2 independent experiments.
To test the effects of peptides on cell proliferation, we seeded 2×10^4 cells per well in a 24-well plate, in the presence of either control or […] (SEQ ID NO: 14) peptide (100 μM). At the indicated time points, cells were fixed in glutaraldehyde, stained in crystal violet, and solubilized in 10% acetic acid. Cell growth was evaluated by absorbance at 590 nm in a microplate reader (Perkin Elmerm Waltham, Mass.). A calibration curve was set up with known numbers of cells and a linear correlation between absorbance and cell counts was established up to 5×10^5 cells/well.

primary CRC cell lines = assay: Liver adhesion assay on frozen sections of grossly normal human liver; type: cell-based
Description: (§1) (FIG. 10A, […]) The receptor side: α6 integrin and E-cadherin are involved in the adhesion of metastatic CRC cells to the liver. HepG2 and NCI-H630 cells were incubated on 10-μm frozen sections of grossly normal human liver and adhered cells were fixed, stained and counted under a light microscope at 20× magnification. Photomicrographs representative of cell numbers (120 minutes' incubation) and morphology (5 days' incubation) are shown. The dotted line indicates a micrometastasis-like structure integrated into the hepatic tissue; arrowheads point to cell aggregates. Tissues were counterstained with hematoxylin (FIG. 10A). NCI-H630 cells silenced for ITGA6, CDH1 or both of these mRNAs were challenged in the same assay (FIG. 10B). Results are shown as mean±standard deviation for each experimental point in 3 independent experiments. (FIG. 10C) The ligand side: the […] (SEQ ID NO: 14) motif and angiopoietin-like 6 interact specifically with cells expressing the receptor proteins. Phage binding was investigated on NCI-H630 cells in which ITGA6, CDH1 or both mRNAs were silenced. Results, normalized to fd-tet binding, are shown as mean±standard deviation of 4 independent experiments. The same cells were evaluated for their capacity to adhere to the […] […] After 48 hours, cells on the lower side of the transwell membranes were fixed, stained and counted under a light microscope at 5× magnification. […] (SEQ ID NO: 14) or control peptide; after 30 minutes, adhered cells were fixed, stained and counted under a light microscope at 5× magnification. For NCI-H630, adhesion was evaluated on liver sections from 27 patients (Patient Ids: P29, P30, P33, P34, P35, P36, P56-76) and results are shown as the ratio of attached cells in the presence of […] […] In FIG. 10A-D, FIG. 10F and FIG. 10G, differences in the experimental points were evaluated for their statistical significance by the use of ANOVA followed by Bonferroni's post-test. […] Fourteen days after surgery, animals were sacrificed and livers were explanted and photographed for the quantification of external tumor areas. […]

NCI-H630 cells = assay: as above; type: cell-based; details: liver sections from 27 patients, versus control peptide, 30 minutes
Description: as §1

[2] = test system: NCI-H630 cells in which ITGA6, CDH1 or both mRNAs were silenced; assay: Cell adhesion to microwells coated with peptides and proteins; type: cell-based, human
Description: (§2) (FIG. 10A, […]) The receptor side: α6 integrin and E-cadherin are involved in the adhesion of metastatic CRC cells to the liver. HepG2 and NCI-H630 cells were incubated on 10-μm frozen sections of grossly normal human liver and adhered cells were fixed, stained and counted under a light microscope at 20× magnification. Photomicrographs representative of cell numbers (120 minutes' incubation) and morphology (5 days' incubation) are shown. The dotted line indicates a micrometastasis-like structure integrated into the hepatic tissue; arrowheads point to cell aggregates. Tissues were counterstained with hematoxylin (FIG. 10A). […] The same cells were evaluated for their capacity to adhere to the […] […] After 48 hours, cells on the lower side of the transwell membranes were fixed, stained and counted under a light microscope at 5× magnification. […] (SEQ ID NO: 14) or control peptide; after 30 minutes, adhered cells were fixed, stained and counted under a light microscope at 5× magnification. For NCI-H630, adhesion was evaluated on liver sections from 27 patients (Patient Ids: P29, P30, P33, P34, P35, P36, P56-76) and results are shown as the ratio of attached cells in the presence of […] […] In FIG. 10A-D, FIG. 10F and FIG. 10G, differences in the experimental points were evaluated for their statistical significance by the use of ANOVA followed by Bonferroni's post-test. […]

β4 integrin subunit = assay: Affinity purification of liver metastasis lysates on column-immobilized peptide, ELISA and phage binding of fractions; details: lysates of human liver metastases, in comparison with the controls; FIG. 8
Description: (FIG. 8A, FIG. 8B) Isolation of […]- (SEQ ID NO: 14) targeted integrin partners. To identify the molecular partner of α6 integrin in the peptide-targeted complex, synthetic […] (SEQ ID NO. 14) was immobilized on column-packed diaminodipropylamine-agarose and successively loaded with 30 mg of total protein from 7 pooled liver metastases secondary to CRCs. Protein fractions were collected after sequential incubation with high salt buffer (for the elution of unspecific proteins), CARAC-peptide (SEQ ID NO. 43) (as a negative control) and […]-peptide (SEQ ID NO. 14) (target elution). Protein amounts in collected fractions were followed by reading their OD at 280 nm (FIG. 8A). […] Control (salt, control peptide) and targeted ([…]—1, —2, and —6) (SEQ ID NO. 14) protein fractions (500 ng each) were evaluated for the presence of specific integrin subunits by an ELISA assay (FIG. 8D).
For the characterization of proteins targeted by […] […] Protein amounts in collected fractions were followed by reading their OD at 280 nm, and selected fractions were concentrated by the use of Microcon centrifugal filter devices with cut-off 10,000 (Millipore) to remove residual synthetic peptides. Proteins were quantified with the Coomassie (Bradford) Protein Assay Kit (Pierce), and 500 ng of each sample was evaluated for the presence of specific integrin subunits with a standard ELISA assay. […]

LS-174T cells = assay: Hepatic colonization model, intrahepatic injection of CRC cells with soluble peptide; type: in vivo, CD-1 nude mice; details: LS-174T intrahepatic, 14 days
Description: as §2

[3] = test system: HCCM-1544 tumor and CRC cell lines (HCT-116m, SW-48, DLD-1, LS-174T); assay: Liver homing model, intrasplenic implantation of CRC cells with soluble peptide; type: in vivo, CD-1 nude mice; details: 100 μM peptide co-injected, significant in all models except DLD-1
Text: To obtain an in vivo model of metastatic CRC, we implanted the patient-derived HCCM-1544 tumor as well as different CRC cell lines (HCT-116m, SW-48, DLD-1 and LS-174T) intrasplenically into CD-1 nude mice (2×10^6/mouse). To evaluate the effect of […] (SEQ ID NO: 14) on liver metastasis, we injected cells either in medium alone (vehicle) or in the presence of the soluble peptide ([…]) (SEQ ID NO: 14). At the indicated time points, mice were euthanized and their livers and spleens were explanted. Livers were photographed for the quantification of external metastatic areas. Representative pictures of whole livers from 2 mice/group are shown for macroscopic evaluation of tumor morphology; the indicated p-values are referred to statistical analysis performed either with Fisher's exact test (in black) or t-test (in red). Spleen (primary tumor) and liver (metastasis) samples were OCT-frozen, cut in 10-μm sections and immunostained with anti-α6 integrin and anti-E-cadherin antibodies, followed by imaging with a confocal microscope. […]
Six-week female CD1-nude mice were purchased from Charles River (Lecco, Italy). […] Mice were strictly monitored until completely awake, and oral ampicillin was administered for 5 days following the surgery. […] External metastatic areas were quantified using ImageJ software.

[4] = test system: U293 cells stably transduced with α6 integrin, E-cadherin or both; assay: Transwell migration toward an angiopoietin-like 6 gradient; type: cell-based, human; details: 48 hours
Description: as §2

Row | integrin subunit content of peptide- and phage-targeted protein fractions (β4 integrin subunit) | Molecule | cell proliferation [1] | adhesiveness on hepatic tissues (primary CRC cell lines; HCT-116m, HT-29, SW-48 and DLD-1) | adhesion to normal hepatic tissues (primary CRC cell lines; non-metastatic HCT-116 cells) | cell adhesion to human liver sections (NCI-H630 cells) | cell adherence to microwells coated with peptide ([2]; NCI-H630 with ITGA6 or both mRNAs silenced, most pronounced with both downmodulated) | liver tumors (external tumor areas) (LS-174T cells; 100 μM peptide co-injected) | overall morphology and levels of receptor complex in the tumors (LS-174T cells) | homing of CRC cells to the liver (liver metastases) [3] | cell migration toward ligand gradient ([4]; U293 cells expressing both α6 integrin and E-cadherin) | cell migration toward ligand gradient ([4]; U293 cells with either α6 integrin or E-cadherin) | cell binding to microwells coated with recombinant protein ([2]; NCI-H630 cells in which both mRNAs were silenced)
1 | substantial enrichment in the β4 subunit | CGIYRLRSC (Peptide inhibiting the E-cadherin/alpha6 integrin complex) [Targeting synthetic LRS-motif peptide, from New England Peptides] | no effects | significantly inhibited | not influenced | significant decrease in cell adhesion | impaired adherence | significant reduction of liver tumors | unchanged | diminished homing of CRC cells to the liver | – | – | –
2 | – | angiopoietin-like 6: secreted factor; recombinant protein from Alexis Biochemicals, or produced by transduced U293 cells (protein) RAGAPRCTYTFVLPPQKFTGAVCWSGPASTRATPEAANASELAALRMRVGRHEELLRELQRLAAADGAVAGEVRALRKESRGLSARLGQLRAQLQHEAGPGAGPGADLGAEPAAALALLGERVLNASAEAQRAAARFHQLDVKFRELAQLVTQQSSLIARLERLCPGGAGGQQQVLPPPPLVPVVPVRLVGSTSDTSRMLDPAPEPQRDQTQRQQEPMASPMPAGHPAVPTKPVGPWQDCAEARQAGHEQSGVYELRVGRHVVSVWCEQQLEGGGWTVIQRRQDGSVNFFTTWQHYKAGFGRPDGEYWLGLEPVYQLTSRGDHELLVLLEDWGGRGARAHYDGFSLEPESDHYRLRLGQYHGDAGDSLSWHNDKPFSTVDRDRDSYSGNCALYQRGGWWYHACAHSNLNGVWHHGGHYRSRYQDGVYWAEFRGGAYSLRKAAMLIRPLKL | – | – | – | – | – | – | – | – | significantly stimulated | not influenced | significantly lower binding
